In assay [1] the target is T1, acyl-CoA:cholesterol acyltransferase (ACAT) (Oryctolagus cuniculus, UniProt G1SFD9).
T1 construct: in a tissue preparation containing rabbit intestinal microsomes; from tissue; host or cells: rabbit intestine, microsomes
T1 sequence (G1SFD9 1-524): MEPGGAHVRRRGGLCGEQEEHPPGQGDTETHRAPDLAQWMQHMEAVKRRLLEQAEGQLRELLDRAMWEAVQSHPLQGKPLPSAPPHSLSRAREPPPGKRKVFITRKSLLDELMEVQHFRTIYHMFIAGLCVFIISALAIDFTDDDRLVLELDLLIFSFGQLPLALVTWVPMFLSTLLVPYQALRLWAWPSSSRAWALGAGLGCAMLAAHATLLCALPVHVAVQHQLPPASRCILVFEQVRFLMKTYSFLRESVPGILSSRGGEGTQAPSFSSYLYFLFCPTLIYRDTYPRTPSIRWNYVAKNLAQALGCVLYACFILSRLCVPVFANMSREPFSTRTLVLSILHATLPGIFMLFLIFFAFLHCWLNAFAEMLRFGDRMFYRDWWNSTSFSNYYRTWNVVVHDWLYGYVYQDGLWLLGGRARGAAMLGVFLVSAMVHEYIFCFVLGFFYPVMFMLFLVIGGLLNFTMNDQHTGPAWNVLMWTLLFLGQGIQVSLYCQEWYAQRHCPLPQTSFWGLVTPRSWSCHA
Nature of the assay: In vitro ACAT inhibition (IAI): formation of radiolabeled cholesterol oleate from radiolabeled oleic acid in rabbit intestinal microsomes. Format: biochemical. Conditions: inhibition of acylation of cholesterol by oleic acid. The text has this: As shown by the data presented below in Table 1, the compounds of the present invention are potent inhibitors of the enzyme acyl-CoA:cholesterolacyltransferase (ACAT), and are thus effective in inhibiting the esterification and transport of cholesterol across the intestinal cell wall. The compounds of the present invention are thus useful in pharmaceutical formulations for the treatment of hypercholesterolemia or atherosclerosis. The ability of representative compounds of the present invention to inhibit ACAT was measured using an in vitro test more fully described in F. J. Field and R. G. Salone, Biochemica et Biophysica 712:557-570 (1982). The test assesses the ability of a test compound to inhibit the acylation of cholesterol by oleic acid by measuring the amount of radiolabeled cholesterol oleate formed from radiolabeled oleic acid in a tissue preparation containing rabbit intestinal microsomes.

Assay [2] is described as follows: In vivo screen APCC: blood cholesterol in rats fed a high fat, high cholesterol diet with 0.5% cholic acid. Further details: species or system male Sprague-Dawley rats. As to conditions: 16 h, rat, 30 mg/kg unless otherwise noted, dosed at 4 PM, high cholesterol diet overnight, blood sampled at 8 AM, read-out: APCC (% .increment.TC). The text has this:
In one in vivo screen designated APCC, male Sprague-Dawley rats (200 to 225 g) were randomly divided into treatment groups and dosed at 4 PM with either vehicle (CMC/Tween) or suspensions of compounds in vehicle. The normal chow diet was then replaced with a high fat, high cholesterol diet with 0.5% cholic acid. The rats consumed this diet ad libitum during the night and were sacrificed at 8 AM to obtain blood samples for cholesterol analysis using standard procedures. Statistical differences between mean cholesterol values for the same vehicle were determined using analysis of variance followed by Fisher's least significant test. The compounds were dosed at 30 mg/kg unless otherwise noted.

On to `CCCCCCCCCCCCCC(C)S(=O)(=O)NC(=O)Nc1c(C(C)C)cccc1C(C)C` (stereo not shown) [Example 1, N-[2,6-Bis(1-methylethyl)phenyl]-N'-(2-pentadecylsulfonyl)urea], for which half-maximal inhibition in assay [1] (IC50) required 1020 nM. Also, the change in vivo at 30 mg/kg in assay [2] was -76%. Regarding `CCCCCCCCCCCCCCS(=O)(=O)NC(=O)Nc1c(C(C)C)cccc1C(C)C` [Example 2, N-[2,6-Bis(1-methylethyl)phenyl]-N'-(tetradecylsulfonyl)urea], in assay [1], the IC50 was determined as 830 nM. Besides, in assay [2], the change in vivo at 30 mg/kg is -56%. Consider `CCCCCCCCCCCCCCS(=O)(=O)N(C)C(=O)Nc1c(C(C)C)cccc1C(C)C` [Example 3, N-[2,6-Bis(1-methylethyl)phenyl]-N'-methyl-N'-(tetradecylsulfonyl)urea], for which the IC50 in assay [1] was more than 5000 nM. The change in vivo at 30 mg/kg in assay [2] was -34%. In the case of `CCCCCCCCCCCCCCS(=O)(=O)N(Cc1ccccc1)C(=O)Nc1c(C(C)C)cccc1C(C)C` [Example 4], in assay [1], the IC50 amounted to 510 nM. In other words, the sub-micromolar range. In turn, `CCCCCCCCS(=O)(=O)NC(=O)Nc1c(C(C)C)cccc1C(C)C` [Example 5, N-[2,6-Bis(1-methylethyl)phenyl]-N'-(octylsulfonyl)urea] showed an IC50 in assay [1] of more than 5000 nM. Regarding `CCCCCCCCCCCCS(=O)(=O)NC(=O)Nc1c(C(C)C)cccc1C(C)C` [Example 6, N-[2,6-Bis(1-methylethyl)phenyl]-N'-(dodecylsulfonyl)urea], the IC50 in assay [1] was determined as 1190 nM. For the same compound, the change in vivo at 30 mg/kg in assay [2] is -63%. In turn, `CCCCCCCCCCCCCCCCS(=O)(=O)NC(=O)Nc1c(C(C)C)cccc1C(C)C` [Example 7, N-[2,6-Bis(1-methylethyl)phenyl]-N'-(hexadecylsulfonyl)urea] returned an IC50 in assay [1] of 1270 nM. For the same compound, in assay [2], the change in vivo at 30 mg/kg was -64%. In assay [1], `CCCCCCCCCCS(=O)(=O)NC(=O)Nc1c(C(C)C)cccc1C(C)C` [Example 8, N-[2,6-Bis(1-methylethyl)phenyl]-N'-(decylsulfonyl)urea] gave an IC50 of 13000 nM. Besides, in assay [2], the change in vivo at 30 mg/kg was -31%. For the compound `CCCCCCCCCCCCCCS(=O)(=O)NC(=O)Nc1ccc(F)cc1F` [Example 10, N-(2,4-Difluorophenyl)-N'-(tetradecylsulfonyl)urea], in assay [1], the IC50 worked out at 5000 nM. Besides, the change in vivo at 30 mg/kg in assay [2] is -14%. In assay [1], `CCCCCCCCCCCCS(=O)(=O)N(C)C(=O)Nc1c(C(C)C)cccc1C(C)C` [Example 11] had an IC50 of 86 nM. The change in vivo at 30 mg/kg in assay [2] was -49%. Take `CCCCCCCCCCCCCC(c1ccccc1)S(=O)(=O)NC(=O)Nc1c(C(C)C)cccc1C(C)C` (stereo not shown) [Example 14, N-[2,6-Bis(1-methylethyl)phenyl]-N'-(1-phenyl-1-tetradecylsulfonyl)urea]: the IC50 in assay [1] was 2000 nM. Further, the change in vivo at 30 mg/kg in assay [2] was -72%. Consider `CCCCCCCCC(c1ccccc1)S(=O)(=O)NC(=O)Nc1c(C(C)C)cccc1C(C)C` (stereo not shown) [Example 15, N-[2,6-Bis(1-methylethyl)phenyl]-N'-(1-phenyl-1-nonylsulfonyl)urea], for which the IC50 in assay [1] amounted to 9200 nM. Moreover, the change in vivo at 30 mg/kg in assay [2] was -75%.

(Values after US5254589A, “Sulfonyl urea and carbamate ACAT inhibitors” (priority 1991, dated 1993).)
